# Laboratory results: ChEMBL document CHEMBL1151757, “Synthesis, radiosynthesis, and biological evaluation of fluorine-18-labeled 2beta-carbo(fluoroalkoxy)-3beta-(3'-((Z)-2-haloethenyl)phenyl)nortropanes: candidate radioligands for in vivo imaging of the serotonin transporter with positron emission tomography” (J Med Chem, 2008)
# Experiments:
# [1] = Ratio of drug uptake in pons to cerebellum in anesthetized cynomolgus monkey after 85 mins postinjection; assay type: ADME, organism-based, Macaca fascicularis; conditions: in vivo
# [2] = Ratio of drug uptake in pons to cerebellum in anesthetized cynomolgus monkey after 95 mins postinjection; assay type: ADME, organism-based, Macaca fascicularis; conditions: in vivo
# [3] = Ratio of drug uptake in pons to cerebellum in anesthetized cynomolgus monkey after 125 mins postinjection; assay type: ADME, organism-based, Macaca fascicularis; conditions: in vivo
# [4] = Ratio of drug uptake in medulla to cerebellum in anesthetized cynomolgus monkey after 1.5 mins postinjection; assay type: ADME, organism-based, Macaca fascicularis; conditions: in vivo, 0.025 h
# [5] = Drug uptake in anesthetized cynomolgus monkey brain occipital lobe after 6.5 mins postinjection; assay type: ADME, organism-based, Macaca fascicularis; set-up: unit not given here; conditions: in vivo
# [6] = Drug uptake in anesthetized cynomolgus monkey brain occipital lobe after 9.5 mins postinjection; assay type: ADME, organism-based, Macaca fascicularis; conditions: in vivo
# [7] = Drug uptake in anesthetized cynomolgus monkey brain occipital lobe after 65 mins postinjection; assay type: ADME, organism-based, Macaca fascicularis; conditions: in vivo
# [8] = Drug uptake in anesthetized cynomolgus monkey brain occipital lobe after 105 mins postinjection; assay type: ADME, organism-based, Macaca fascicularis; conditions: in vivo, 1.75 h
# [9] = Drug uptake in anesthetized cynomolgus monkey brain frontal lobe after 2.5 mins postinjection; assay type: ADME, organism-based, Macaca fascicularis; conditions: in vivo
# [10] = Drug uptake in anesthetized cynomolgus monkey brain frontal lobe after 18.5 mins postinjection; assay type: ADME, organism-based, Macaca fascicularis; conditions: in vivo
# [11] = Drug uptake in anesthetized cynomolgus monkey brain frontal lobe after 27.5 mins postinjection; assay type: ADME, organism-based, Macaca fascicularis; conditions: in vivo
# [12] = Drug uptake in anesthetized cynomolgus monkey brain frontal lobe after 35 mins postinjection; assay type: ADME, organism-based, Macaca fascicularis; conditions: in vivo
# [13] = Drug uptake in anesthetized cynomolgus monkey brain frontal lobe after 95 mins postinjection; assay type: ADME, organism-based, Macaca fascicularis; conditions: in vivo
# [14] = Drug uptake in anesthetized cynomolgus monkey brain frontal lobe after 215 mins postinjection; assay type: ADME, organism-based, Macaca fascicularis; conditions: in vivo
# [15] = Ratio of drug uptake in occipital lobe to cerebellum in anesthetized cynomolgus monkey after 175 mins postinjection; assay type: ADME, organism-based, Macaca fascicularis; conditions: in vivo
# Putamen [16] = assay: Drug uptake in anesthetized cynomolgus monkey brain putamen after 145 mins postinjection; assay type: ADME, organism-based, Macaca fascicularis; conditions: in vivo
# Putamen [17] = assay: Drug uptake in anesthetized cynomolgus monkey brain putamen after 165 mins postinjection; assay type: ADME, organism-based, Macaca fascicularis; conditions: in vivo, 2.75 h
# Putamen [18] = assay: Drug uptake in anesthetized cynomolgus monkey brain putamen after 235 mins postinjection; assay type: ADME, organism-based, Macaca fascicularis; conditions: in vivo
# [19] = Ratio of drug uptake in occipital lobe to cerebellum in anesthetized cynomolgus monkey after 235 mins postinjection; assay type: ADME, organism-based, Macaca fascicularis; conditions: in vivo
# [20] = Ratio of drug uptake in frontal lobe to cerebellum in anesthetized cynomolgus monkey after 95 mins postinjection; assay type: ADME, organism-based, Macaca fascicularis; conditions: in vivo
# Pons [21] = assay: Drug uptake in anesthetized cynomolgus monkey brain pons after 0.5 mins postinjection; assay type: ADME, organism-based, Macaca fascicularis; conditions: in vivo
# Pons [22] = assay: Drug uptake in anesthetized cynomolgus monkey brain pons after 3.5 mins postinjection; assay type: ADME, organism-based, Macaca fascicularis; conditions: in vivo
# Pons [23] = assay: Drug uptake in anesthetized cynomolgus monkey brain pons after 4.5 mins postinjection; assay type: ADME, organism-based, Macaca fascicularis; conditions: in vivo, 0.075 h
# Pons [24] = assay: Drug uptake in anesthetized cynomolgus monkey brain pons after 105 mins postinjection; assay type: ADME, organism-based, Macaca fascicularis; conditions: in vivo, 1.75 h
# [25] = Ratio of drug uptake in frontal lobe to cerebellum in anesthetized cynomolgus monkey after 235 mins postinjection; assay type: ADME, organism-based, Macaca fascicularis; conditions: in vivo
# [26] = Ratio of drug uptake in caudate to cerebellum in anesthetized cynomolgus monkey after 18.5 mins postinjection; assay type: ADME, organism-based, Macaca fascicularis; conditions: in vivo
# [27] = Ratio of drug uptake in caudate to cerebellum in anesthetized cynomolgus monkey after 155 mins postinjection; assay type: ADME, organism-based, Macaca fascicularis; conditions: in vivo
# Pons [28] = assay: Drug uptake in anesthetized cynomolgus monkey brain pons after 165 mins postinjection; assay type: ADME, organism-based, Macaca fascicularis; conditions: in vivo, 2.75 h
# Pons [29] = assay: Drug uptake in anesthetized cynomolgus monkey brain pons after 175 mins postinjection; assay type: ADME, organism-based, Macaca fascicularis; conditions: in vivo
# Medulla [30] = assay: Drug uptake in anesthetized cynomolgus monkey brain medulla after 0.5 mins postinjection; assay type: ADME, organism-based, Macaca fascicularis; conditions: in vivo
# Medulla [31] = assay: Drug uptake in anesthetized cynomolgus monkey brain medulla after 4.5 mins postinjection; assay type: ADME, organism-based, Macaca fascicularis; conditions: in vivo, 0.075 h
# Medulla [32] = assay: Drug uptake in anesthetized cynomolgus monkey brain medulla after 9.5 mins postinjection; assay type: ADME, organism-based, Macaca fascicularis; conditions: in vivo
# Medulla [33] = assay: Drug uptake in anesthetized cynomolgus monkey brain medulla after 105 mins postinjection; assay type: ADME, organism-based, Macaca fascicularis; conditions: in vivo, 1.75 h
# [34] = Ratio of drug uptake in putamen to cerebellum in anesthetized cynomolgus monkey after 3.5 mins postinjection; assay type: ADME, organism-based, Macaca fascicularis; conditions: in vivo
# [35] = Ratio of drug uptake in putamen to cerebellum in anesthetized cynomolgus monkey after 6.5 mins postinjection; assay type: ADME, organism-based, Macaca fascicularis; conditions: in vivo
# [36] = Ratio of drug uptake in putamen to cerebellum in anesthetized cynomolgus monkey after 9.5 mins postinjection; assay type: ADME, organism-based, Macaca fascicularis; conditions: in vivo
# [37] = Ratio of drug uptake in putamen to cerebellum in anesthetized cynomolgus monkey after 35 mins postinjection; assay type: ADME, organism-based, Macaca fascicularis; conditions: in vivo
# Medulla [38] = assay: Drug uptake in anesthetized cynomolgus monkey brain medulla after 125 mins postinjection; assay type: ADME, organism-based, Macaca fascicularis; conditions: in vivo
# Medulla [39] = assay: Drug uptake in anesthetized cynomolgus monkey brain medulla after 235 mins postinjection; assay type: ADME, organism-based, Macaca fascicularis; conditions: in vivo
# [40] = Drug uptake in anesthetized cynomolgus monkey brain cerebellum after 0.5 mins postinjection; assay type: ADME, organism-based, Macaca fascicularis; conditions: in vivo
# [41] = Drug uptake in anesthetized cynomolgus monkey brain cerebellum after 35 mins postinjection; assay type: ADME, organism-based, Macaca fascicularis; conditions: in vivo
# [42] = Drug uptake in anesthetized cynomolgus monkey brain cerebellum after 45 mins postinjection; assay type: ADME, organism-based, Macaca fascicularis; conditions: in vivo, 0.75 h
# [43] = Ratio of drug uptake in putamen to cerebellum in anesthetized cynomolgus monkey after 215 mins postinjection; assay type: ADME, organism-based, Macaca fascicularis; conditions: in vivo
# [44] = Ratio of drug uptake in thalamus to cerebellum in anesthetized cynomolgus monkey after 155 mins postinjection; assay type: ADME, organism-based, Macaca fascicularis; conditions: in vivo
# Caudate [45] = assay: Drug uptake in anesthetized cynomolgus monkey brain caudate after 2.5 mins postinjection; assay type: ADME, organism-based, Macaca fascicularis, Caudate nucleus; conditions: in vivo
# Caudate [46] = assay: Drug uptake in anesthetized cynomolgus monkey brain caudate after 3.5 mins postinjection; assay type: ADME, organism-based, Macaca fascicularis, Caudate nucleus; conditions: in vivo
# Caudate [47] = assay: Drug uptake in anesthetized cynomolgus monkey brain caudate after 22.5 mins postinjection; assay type: ADME, organism-based, Macaca fascicularis, Caudate nucleus; conditions: in vivo, 0.375 h
# Caudate [48] = assay: Drug uptake in anesthetized cynomolgus monkey brain caudate after 55 mins postinjection; assay type: ADME, organism-based, Macaca fascicularis, Caudate nucleus; conditions: in vivo
# Caudate [49] = assay: Drug uptake in anesthetized cynomolgus monkey brain caudate after 95 mins postinjection; assay type: ADME, organism-based, Macaca fascicularis, Caudate nucleus; conditions: in vivo
# Caudate [50] = assay: Drug uptake in anesthetized cynomolgus monkey brain caudate after 235 mins postinjection; assay type: ADME, organism-based, Macaca fascicularis, Caudate nucleus; conditions: in vivo
# Thalamus [51] = assay: Drug uptake in anesthetized cynomolgus monkey brain thalamus after 3.5 mins postinjection; assay type: ADME, organism-based, Macaca fascicularis; set-up: unit not given here; conditions: in vivo
# Putamen [52] = assay: Drug uptake in anesthetized cynomolgus monkey brain putamen after 9.5 mins postinjection; assay type: ADME, organism-based, Macaca fascicularis; set-up: unit not given here; conditions: in vivo
# Thalamus [53] = assay: Drug uptake in anesthetized cynomolgus monkey brain thalamus after 55 mins postinjection; assay type: ADME, organism-based, Macaca fascicularis; set-up: unit not given here; conditions: in vivo
# Thalamus [54] = assay: Drug uptake in anesthetized cynomolgus monkey brain thalamus after 65 mins postinjection; assay type: ADME, organism-based, Macaca fascicularis; set-up: unit not given here; conditions: in vivo
# Midbrain [55] = assay: Drug uptake in anesthetized cynomolgus monkey brain midbrain after 3.5 mins postinjection; assay type: ADME, organism-based, Macaca fascicularis; set-up: unit not given here; conditions: in vivo
# Midbrain [56] = assay: Drug uptake in anesthetized cynomolgus monkey brain midbrain after 22.5 mins postinjection; assay type: ADME, organism-based, Macaca fascicularis; set-up: unit not given here; conditions: in vivo, 0.375 h
# Midbrain [57] = assay: Drug uptake in anesthetized cynomolgus monkey brain midbrain after 27.5 mins postinjection; assay type: ADME, organism-based, Macaca fascicularis; set-up: unit not given here; conditions: in vivo
# Midbrain [58] = assay: Drug uptake in anesthetized cynomolgus monkey brain midbrain after 55 mins postinjection; assay type: ADME, organism-based, Macaca fascicularis; set-up: unit not given here; conditions: in vivo
# Midbrain [59] = assay: Drug uptake in anesthetized cynomolgus monkey brain midbrain after 75 mins postinjection; assay type: ADME, organism-based, Macaca fascicularis; set-up: unit not given here; conditions: in vivo, 1.25 h
# Midbrain [60] = assay: Drug uptake in anesthetized cynomolgus monkey brain midbrain after 85 mins postinjection; assay type: ADME, organism-based, Macaca fascicularis; set-up: unit not given here; conditions: in vivo
# Midbrain [61] = assay: Drug uptake in anesthetized cynomolgus monkey brain midbrain after 125 mins postinjection; assay type: ADME, organism-based, Macaca fascicularis; set-up: unit not given here; conditions: in vivo
smiles,measurement,setting,value
O=C(OCCC[18F])C1C2CCC(CC1c1cccc(/C=C\Br)c1)N2 (stereo unspecified),Ratio,[1],1.2
same,Ratio,[2],1.2
same,Ratio,[3],1.4
same,Ratio,[4],0.9
same,Drug uptake,[5],3.31
same,Drug uptake,[6],3.77
same,Drug uptake,[7],4.52
same,Drug uptake,[8],3.91
same,Drug uptake,[9],0.79
same,Drug uptake,[10],3.7
same,Drug uptake,[11],3.8
same,Drug uptake,[12],3.74
same,Drug uptake,[13],3.31
same,Drug uptake,[14],2.03
same,Ratio,[15],1.3
same,Drug uptake,Putamen [16],4.58
same,Drug uptake,Putamen [17],4.31
same,Drug uptake,Putamen [18],3.27
same,Ratio,[19],1.4
same,Ratio,[20],0.9
same,Drug uptake,Pons [21],0.01
same,Drug uptake,Pons [22],1.87
same,Drug uptake,Pons [23],2.44
same,Drug uptake,Pons [24],4.38
same,Ratio,[25],1.1
same,Ratio,[26],0.7
same,Ratio,[27],1.6
same,Drug uptake,Pons [28],3.84
same,Drug uptake,Pons [29],3.78
same,Drug uptake,Medulla [30],0.02
same,Drug uptake,Medulla [31],3.95
same,Drug uptake,Medulla [32],5.63
same,Drug uptake,Medulla [33],5.19
same,Ratio,[34],0.8
same,Ratio,[35],0.9
same,Ratio,[36],0.9
same,Ratio,[37],1.1
same,Drug uptake,Medulla [38],4.99
same,Drug uptake,Medulla [39],3.34
same,Drug uptake,[40],0.01
same,Drug uptake,[41],5.43
same,Drug uptake,[42],5.11
same,Ratio,[43],1.7
same,Ratio,[44],1.6
same,Drug uptake,Caudate [45],0.83
same,Drug uptake,Caudate [46],1.7
same,Drug uptake,Caudate [47],4.63
same,Drug uptake,Caudate [48],5.31
same,Drug uptake,Caudate [49],5.03
same,Drug uptake,Caudate [50],3.28
same,Drug uptake,Thalamus [51],1.89
same,Drug uptake,Putamen [52],5.12
same,Drug uptake,Thalamus [53],5.46
same,Drug uptake,Thalamus [54],5.39
same,Drug uptake,Midbrain [55],2.59
same,Drug uptake,Midbrain [56],5.88
same,Drug uptake,Midbrain [57],6.06
same,Drug uptake,Midbrain [58],6.1
same,Drug uptake,Midbrain [59],6.07
same,Drug uptake,Midbrain [60],5.86
same,Drug uptake,Midbrain [61],5.5
